These results are taken from ChEMBL document CHEMBL5233273, “An overview of hydroxypyranone and hydroxypyridinone as privileged scaffolds for novel drug discovery” (Eur J Med Chem, 2021).

pEC50, pIC50: −log10 of the molar value. ≈ marks a conversion by molar mass, not a printed value.

The test system of assay [1] is Hepatitis C virus. Kind of assay: Antiviral activity against HCV. The assay is classed as functional, organism-based, Hepacivirus hominis.
A short description of assay [2]: Inhibition of HIV-1 integrase. Also on record: species or system Human immunodeficiency virus 1.
Assay [3] deals with Amine oxidase [flavin-containing] B (Homo sapiens, UniProt P27338). Kind of assay: Inhibition of human MAO-B.
Sequence of Amine oxidase [flavin-containing] B (P27338 whole entry): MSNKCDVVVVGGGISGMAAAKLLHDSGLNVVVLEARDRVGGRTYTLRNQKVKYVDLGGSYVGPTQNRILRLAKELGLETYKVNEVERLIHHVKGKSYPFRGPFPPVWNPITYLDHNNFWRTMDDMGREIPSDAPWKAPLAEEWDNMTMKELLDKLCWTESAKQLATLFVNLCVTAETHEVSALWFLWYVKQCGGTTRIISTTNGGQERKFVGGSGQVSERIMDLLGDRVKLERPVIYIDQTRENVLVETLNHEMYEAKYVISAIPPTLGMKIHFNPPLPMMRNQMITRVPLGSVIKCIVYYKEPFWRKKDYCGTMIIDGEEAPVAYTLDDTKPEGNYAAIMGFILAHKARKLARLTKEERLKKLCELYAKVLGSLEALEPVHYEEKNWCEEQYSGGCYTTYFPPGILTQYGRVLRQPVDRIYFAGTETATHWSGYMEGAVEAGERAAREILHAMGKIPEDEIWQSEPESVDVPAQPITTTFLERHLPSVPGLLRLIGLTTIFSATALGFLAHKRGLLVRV
Assay [4] has as its target DNA gyrase (Escherichia coli, UniProt P0AES4+P0AES6). Kind of assay: Inhibition of Escherichia coli DNA gyrase. The assay is classed as protein-complex assay.
Assay [5] concerns B16-F10. Kind of assay: Inhibition of tyrosinase in mouse B16-F10 cells assessed as inhibition of melanin production at 5 ug relative to control. The conditions noted are these: dose 5.0 µg. In kind it is cell-based.
Assay [6] is described as follows: Antioxidant activity assessed as DPPH radical scavenging activity. The assay is classed as functional. On the technique in general: DPPH is a stable violet radical that fades when it is reduced.
Assay [7] can be described thus: Antiinflammatory activity in macrophages assessed as reduction in LPS-induced NO production. The assay is classed as functional, cell-based. The conditions noted are these: Macrophage.
For assay [8], the target named is T1, Tyrosinase (Agaricus bisporus, UniProt O42713).
T1 sequence (O42713 whole entry): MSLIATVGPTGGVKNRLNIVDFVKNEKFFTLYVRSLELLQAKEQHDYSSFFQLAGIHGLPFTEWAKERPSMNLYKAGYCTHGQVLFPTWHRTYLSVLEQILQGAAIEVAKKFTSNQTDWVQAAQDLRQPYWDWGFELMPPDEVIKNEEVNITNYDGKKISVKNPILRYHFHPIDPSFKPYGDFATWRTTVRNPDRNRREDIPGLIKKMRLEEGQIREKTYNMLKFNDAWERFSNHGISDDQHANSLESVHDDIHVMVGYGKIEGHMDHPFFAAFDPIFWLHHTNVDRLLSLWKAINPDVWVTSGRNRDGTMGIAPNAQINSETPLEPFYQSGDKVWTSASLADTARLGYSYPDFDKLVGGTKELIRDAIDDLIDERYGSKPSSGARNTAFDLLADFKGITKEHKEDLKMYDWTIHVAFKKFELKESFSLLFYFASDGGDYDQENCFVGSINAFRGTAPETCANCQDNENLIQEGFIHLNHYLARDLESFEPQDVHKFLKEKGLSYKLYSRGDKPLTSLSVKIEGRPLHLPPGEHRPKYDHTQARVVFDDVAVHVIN
Kind of assay: Inhibition of mushroom tyrosinase diphenolase activity.

Assay [9] addresses T1, Tyrosinase. Kind of assay: Inhibition of mushroom tyrosinase monophenolase activity.
Assay [10] in a line: Neuroprotective activity in CGC cells assessed as inhibition of lipid peroxidation. In kind it is functional, cell-based. To be noted: cerebellar granule neurone.
Assay [11] has as its system Staphylococcus aureus. Kind of assay: Antibacterial activity against Staphylococcus aureus. The assay is classed as functional.
For assay [12], the system named is Escherichia coli. Kind of assay: Antibacterial activity against Escherichia coli. In kind it is functional.
The test system of assay [13] is Enterococcus faecalis. Kind of assay: Antibacterial activity against Enterococcus faecalis. The assay is classed as functional.
The subject of assay [14] is Pichia kudriavzevii. Kind of assay: Antifungal activity against Candida krusei ATCC 6258. The assay is classed as functional.
The subject of assay [15] is Escherichia coli. Kind of assay: Antibacterial activity against Escherichia coli ATCC 35218. In kind it is functional.
Assay [16] concerns Mycobacterium tuberculosis. Kind of assay: Antitubercular activity against Mycobacterium tuberculosis H37Rv ATCC 27294. The assay is classed as functional.
Assay [17] concerns Bacillus subtilis. Kind of assay: Antibacterial activity against Bacillus subtilis ATCC 6633. In kind it is functional.
Assay [18] has as its system Enterococcus faecalis. Kind of assay: Antibacterial activity against Enterococcus faecalis ATCC 29212. The assay is classed as functional.
The test system of assay [19] is Acinetobacter baumannii. Kind of assay: Antibacterial activity against Acinetobacter baumannii i RSKK 02026. In kind it is functional.
In assay [20] the test system is Klebsiella pneumoniae. Kind of assay: Antibacterial activity against Klebsiella pneumoniae RSKK 574. In kind it is functional.
The test system of assay [21] is Pseudomonas aeruginosa. Kind of assay: Antibacterial activity against Pseudomonas aeruginosa ATCC 10145. The assay is classed as functional.
The test system of assay [22] is Proteus mirabilis. Kind of assay: Antibacterial activity against Proteus mirabilis ATCC 7002. In kind it is functional.
Assay [23] relates to Staphylococcus aureus. Kind of assay: Antibacterial activity against Staphylococcus aureus ATCC 25923. In kind it is functional.
Assay [24] deals with Mycobacterium avium. Kind of assay: Antitubercular activity against Mycobacterium avium ATCC 15769. The assay is classed as functional.
Assay [25] has as its system RAW264.7. Kind of assay: Antiinflammatory activity in mouse RAW264.7 assessed as reduction in LPS-induced PGE2 production. The assay is classed as functional, cell-based.
In assay [26] the test system is Candida tropicalis. Kind of assay: Antifungal activity against Candida tropicalis ATCC 13803. In kind it is functional.
In assay [27] the test system is Candida albicans. Kind of assay: Antifungal activity against Candida albicans ATCC10231. In kind it is functional.
For assay [28], the system named is Candida parapsilosis. Kind of assay: Antifungal activity against […]. In kind it is functional. The conditions noted are these: Lodderomyces parapsilosis.
For assay [29], the system named is Candida albicans. Kind of assay: Antifungal activity against Candida albicans ATCC 90028. In kind it is functional.
For assay [30], the system named is Bacillus subtilis. Kind of assay: Antibacterial activity against Bacillus subtilis. In kind it is functional.
Assay [31] has as its system Pseudomonas aeruginosa. Kind of assay: Antibacterial activity against Pseudomonas aeruginosa. The assay is classed as functional.
The subject of assay [32] is HepG2. Kind of assay: Cytotoxicity against human HepG2 cells. In kind it is functional, cell-based.

The pEC50 is the negative decadic logarithm of the EC50, by convention in mol/L. The low end stands for a large EC50, the high end for a small EC50. `O=C(OCc1cc(=O)c(O)co1)c1ccc2ccccc2c1` showed a pEC50 in assay [1] of 5.56.

The term pIC50 denotes the IC50 on a negative log10 scale, so that one unit is a factor of ten. Regarding `Cc1cc(=O)c(O)c(C(=O)NCc2ccc(Cl)cc2)o1`, in [2], the pEC50 was 5.71 and the pIC50 is 5.76.

`CCc1c(O)c(=O)cc(C)n1CCCn1cc(COc2ccc3ccc(=O)oc3c2)nn1`: the pIC50 in assay [3] is 6.17.

In assay [4], `Cc1[nH]c(C(=O)N[C@H]2CCc3nc(NC(=O)[C@@H](NC(=O)c4cc(=O)c(O)c[nH]4)C(C)C)sc3C2)c(Cl)c1Cl` gave a pIC50 of 6.19.

The term inhibition denotes how much of the control response was suppressed. Turning to `O=c1cc(/C=C/c2cc(=O)c(O)co2)occ1O`, the inhibition in assay [5] came out at 19.5%.

`CCOC(=O)CC(c1ccccc1)c1oc(CO)cc(=O)c1O` (centres undefined): in assay [6], the Activity is 58.2%.

In the case of `O=c1cc(CSc2ccc(Cl)cc2)occ1O`, the pIC50 in assay [7] was 4.62.

With `CCCCCCCCn1cc(O)c(=O)cc1/C=N/OCC`, the pIC50 in assay [8] was 5.10; in [9] it was 5.80.

For `Cc1c(O)c(=O)ccn1CCc1cc(C(C)(C)C)c(O)c(C(C)(C)C)c1`, in assay [10], the pIC50 is 6.52.

In [2], `Cc1cc(=O)c(O)c(C(=O)NCc2ccc(F)cc2)o1` gave a pEC50 of 6.15 and a pIC50 of 6.43.

The term MIC denotes the smallest concentration in the dilution series that meets the test's criterion for growth inhibition. As to `Cc1cc(=O)c(O)c(C(=O)Nc2ccc3c(C)cc(=O)oc3c2)o1`, the MIC in assay [11] was 8 µg/mL (≈ 24.4 µM); in [12], 8 µg/mL (≈ 24.4 µM); in [13] it was 8 µg/mL (≈ 24.4 µM); in [14], 4 µg/mL (≈ 12.2 µM).

For `O=c1cc(CCl)oc(CN2CCN(Cc3ccc(C(F)(F)F)cc3)CC2)c1O`, the minimal inhibitory concentration (MIC) in [15] is 8 µg/mL (≈ 19.2 µM); in assay [16], 4 µg/mL (≈ 9.6 µM); in assay [17], 4 µg/mL (≈ 9.6 µM); in [18] it was 4 µg/mL (≈ 9.6 µM); in assay [19] it was 8 µg/mL (≈ 19.2 µM); in assay [20] it was 8 µg/mL (≈ 19.2 µM). Moreover, the MIC in [21] turned out to be 8 µg/mL (≈ 19.2 µM); in [22] it was 8 µg/mL (≈ 19.2 µM); in assay [23], 4 µg/mL (≈ 9.6 µM); in assay [24], 4 µg/mL (≈ 9.6 µM).

Consider `CCCCCCCCn1cc(O)c(=O)cc1COC(=O)[C@@H](N)Cc1ccccc1`, for which the pIC50 in assay [8] is 5.40; in [9], 4.90.

As for `Cc1[nH]c(C(=O)N[C@H]2CCc3nc(NCc4cc(=O)c(O)co4)sc3C2)c(Cl)c1Cl`, the pIC50 in [4] is 5.68.

In the case of `O=c1cc(/C=C/c2ccc(O)c(O)c2)occ1O`, in [25], the negative logarithm of the IC50 (pIC50) is 4.99.

The compound `Cn1cc(O)c(=O)cc1C(=O)Nc1cccnc1` registered an MIC in assay [11] of 32 µg/mL (≈ 130 µM).

As to `O=c1cc(CCl)oc(CN2CCN(c3ccccc3)CC2)c1O`, the MIC in [15] was 8 µg/mL (≈ 23.9 µM); in [16], 4 µg/mL (≈ 11.9 µM); in assay [26] it was 8 µg/mL (≈ 23.9 µM); in assay [27], 8 µg/mL (≈ 23.9 µM); in [19] it was 8 µg/mL (≈ 23.9 µM); in assay [20], 8 µg/mL (≈ 23.9 µM). Further, the MIC was found to be 8 µg/mL (≈ 23.9 µM) in assay [21]; 8 µg/mL (≈ 23.9 µM) in [22]; 8 µg/mL (≈ 23.9 µM) in assay [28]; 4 µg/mL (≈ 11.9 µM) in [24]; 8 µg/mL (≈ 23.9 µM) in [14].

For `Cn1cc(O)c(=O)cc1C(=O)Nc1ccccc1`, the minimum inhibitory concentration (MIC) in assay [11] was determined as 16 µg/mL (≈ 65.5 µM).

Compound `Cc1cc(=O)c(O)c(CN2CCN(Cc3ccccc3)CC2)o1` returned an MIC in assay [29] of 64 µg/mL (≈ 204 µM).

On to `CCCC(=O)NC(CCCNC(=O)c1c(O)c(=O)ccn1CCO)(CCCNC(=O)c1c(O)c(=O)ccn1CCO)CCCNC(=O)c1c(O)c(=O)ccn1CCO`, for which the minimal inhibitory concentration (MIC) in [30] is 8 µg/mL (≈ 9.81 µM); in [11] it was 8 µg/mL (≈ 9.81 µM); in assay [12] it was 8 µg/mL (≈ 9.81 µM); in assay [31], 16 µg/mL (≈ 19.6 µM).

As to `O=c1cc(CN2CCCCC2)oc(CN2CCN(Cc3ccc(Br)c(F)c3)CC2)c1O`, the pIC50 in [32] is 4.43.

As for `Cc1c(O)c(=O)ccn1CCSc1cc(C(C)(C)C)c(O)c(C(C)(C)C)c1`, in [10], the pIC50 was 6.40.

`COc1ccccc1N1CCN(Cc2oc(C)cc(=O)c2O)CC1`: in assay [29], the minimal inhibitory concentration (MIC) is 64 µg/mL (≈ 194 µM).

In assay [4], `Cc1[nH]c(C(=O)N[C@H]2CCc3nc(NC(=O)CCNC(=O)c4cc(=O)c(O)c[nH]4)sc3C2)c(Cl)c1Cl` had a negative logarithm of the IC50 (pIC50) of 6.46.

Consider `O=c1cc(/C=C/c2ccc(O)cc2)occ1O`, for which, in assay [25], the pIC50 was 5.49.
